Measured values reported in patent US11014926B2, “Pyrrolo-, pyrazolo-, imidazo-pyrimidine and pyridine compounds that inhibit MNK1 and MNK2” (EFFECTOR THERAPEUTICS, INC., priority 2015, dated 2021).
Structures can show the parent of a compound that is named as a salt. Where two headings read alike, the source gives them in different places.

Key:
recombinant MNK2 = recombinant MNK2 (Homo sapiens (Human), UniProt Q9HBH9); test: MNK Biochemical Enzymatic Assay (ADP-Glo kinase assay), MNK2
Procedure: Compounds are screened for MNK inhibition using the ADP-Glo kinase assay kit (Promega, catalogue No. V9101). All kinase reactions are performed in Reaction Buffer E (15 mM HEPES pH7.4, 20 mM NaCl, 1 mM EGTA, 10 mM MgCl2, 0.1 mg/ml BGG, and 0.02% Tween-20). […] Final DMSO concentration in each reaction is 1%.
(§1) Kinase reactions are carried out in 96-well half-area white flat-bottom polystyrene plates in a final volume of 25 μl. MNK1/2 enzymes are pre-incubated with compound and peptide substrate for 5 minutes prior to the addition of ATP. After the addition of ATP, kinase reactions are incubated at room temperature for 40 minutes. Reactions are subsequently stopped by the addition of 25 μl of ADP-Glo Reagent and incubating for an additional 40 minutes. The final luminescent signal used for kinase activity readout is produced by the addition of 45 μl of Kinase Detection Reagent (ADP-Glo kit, Promega) and incubating for 40 minutes. The luminescent signal is detected using a Victor 2 multilabel counter (Perkin Elmer) and the concentration of compound necessary to achieve inhibition of enzyme activity by 50% (IC50) is calculated using signals from an 8-point compound dilution series.

recombinant MNK1 = recombinant MNK1 (Homo sapiens (Human), UniProt Q9BUB5); test: MNK Biochemical Enzymatic Assay (ADP-Glo kinase assay), MNK1; details: 10 nM recombinant MNK1, 300 μM ATP
Procedure: Compounds are screened for MNK inhibition using the ADP-Glo kinase assay kit (Promega, catalogue No. V9101). All kinase reactions are performed in Reaction Buffer E (15 mM HEPES pH7.4, 20 mM NaCl, 1 mM EGTA, 10 mM MgCl2, 0.1 mg/ml BGG, and 0.02% Tween-20). Final MNK 1 reactions contained 10 nM recombinant MNK1 (Life Technologies, PR9138A), 100 μM MNK substrate peptide Ac-TATKSGSTTKNR-NH2 (American Peptide Company), 300 μM ATP, and varying concentrations of the inhibitory compound of interest. Final MNK2 reactions contained 3 nM recombinant MNK2 (Life Technologies, PV5607), 50 μM MNK substrate peptide Ac-TATKSGSTTKNR-NH2 (American Peptide Company), 10 μM ATP, and varying concentrations of the inhibitory compound of interest. Final DMSO concentration in each reaction is 1%.
as §1
To this end, IC50 values of less than 0.01 μM are labeled as “+++”, from 0.01 to 0.1 μM are labeled as “++”, and greater than 0.1 to 10.0 μM are labeled as “+” (NA means “not available”).

Phosphorylated eIF4E = test: peIF4E Signaling Cellular Assay (CisBio peIF4E HTRF); type: cell-based; details: cells incubated with compound for 2 hrs at 37° C.
Procedure: Phosphorylated eIF4E is assayed using the CisBio peIF4E HTRF® assay kit (CisBio, catalogue No. 64EF4PEG). Cells are plated in 96-well tissue-culture treated plate in appropriate growth medium (90 μL). Compounds (10×) are diluted using 3-fold serial dilutions in cell culture medium and added to cells. Plates are incubated for 2 hrs at 37° C. The cell supernatant is carefully removed either by aspirating supernatant or by flicking the plate. Immediately 50 μL of supplemented lysis buffer (IX) is added and incubated for at least 30 minutes at room temperature under shaking. After homogenization by pipetting up and down, 16 μL of cell lysate is transferred from the 96-well cell-culture plate to a 384-well small volume white plate, 4 μL of premixed antibody solutions (vol/vol) is prepared in the detection buffer and added. The plate is covered with a plate sealer and incubated overnight at room temperature. The fluorescence emissions at two different wavelengths are read (665 nm and 620 nm) on a Wallac Victor2. Emission ratios are converted into percent inhibitions and imported into GraphPad Prism software. […] IC50 values are determined using a nonlinear regression model available in GraphPad Prism 5.
To this end, IC50 values of less than 0.05 μM are labeled as “+++”, from 0.05 to 1.0 μM are labeled as “++”, greater than 1.0 to 100 μM are labeled as “+”, and NA means “not available”.

[1] = 3 nM recombinant MNK2, 10 μM ATP, read-out: IC50 Mnk2

recombinant MNK2, sequence (Q9HBH9 whole entry): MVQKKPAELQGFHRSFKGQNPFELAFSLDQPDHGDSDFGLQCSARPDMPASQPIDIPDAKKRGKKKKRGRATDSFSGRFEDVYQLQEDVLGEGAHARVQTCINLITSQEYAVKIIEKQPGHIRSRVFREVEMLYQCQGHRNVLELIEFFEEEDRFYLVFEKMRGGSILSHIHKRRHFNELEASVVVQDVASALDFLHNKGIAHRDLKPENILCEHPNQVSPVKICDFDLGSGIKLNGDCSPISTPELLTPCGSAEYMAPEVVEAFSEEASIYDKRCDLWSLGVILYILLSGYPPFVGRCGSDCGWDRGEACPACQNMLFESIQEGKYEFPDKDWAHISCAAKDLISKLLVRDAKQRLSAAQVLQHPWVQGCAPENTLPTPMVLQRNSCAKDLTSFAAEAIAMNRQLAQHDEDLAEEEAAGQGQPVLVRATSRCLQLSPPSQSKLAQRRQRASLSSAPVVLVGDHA
recombinant MNK1, sequence (Q9BUB5 whole entry): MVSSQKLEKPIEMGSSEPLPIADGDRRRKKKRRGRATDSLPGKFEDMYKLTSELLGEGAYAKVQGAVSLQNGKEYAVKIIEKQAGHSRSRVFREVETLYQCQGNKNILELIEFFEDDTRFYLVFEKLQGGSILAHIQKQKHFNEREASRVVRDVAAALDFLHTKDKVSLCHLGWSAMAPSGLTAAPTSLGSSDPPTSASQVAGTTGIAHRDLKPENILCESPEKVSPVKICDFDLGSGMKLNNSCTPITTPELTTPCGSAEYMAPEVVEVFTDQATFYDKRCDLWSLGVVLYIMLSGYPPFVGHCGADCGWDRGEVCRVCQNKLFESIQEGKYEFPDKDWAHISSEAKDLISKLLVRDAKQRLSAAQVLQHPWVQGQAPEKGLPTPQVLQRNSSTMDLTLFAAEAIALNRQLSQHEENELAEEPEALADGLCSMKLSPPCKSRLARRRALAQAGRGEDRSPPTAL

IC50 (recombinant MNK2; [1]) | Structure (SMILES) | IC50 (recombinant MNK2) | IC50 (recombinant MNK1) | IC50 (Phosphorylated eIF4E)
– | O=C1NCc2nc(-n3ccc4cnccc43)ccc21 [Cpd. No. 5, 2-(1H-pyrrolo[3,2-c]pyridin-1-yl)-6,7-dihydro-5H-pyrrolo[3,4-b]pyridin-5-one] | 100 to 10000 nM | – | –
– | Cn1cc(-c2cn(-c3ccc4c(c3)CNC4=O)c3ncncc23)cn1 [Cpd. No. 8, 5-(5-(1-methyl-1H-pyrazol-4-yl)-7H-pyrrolo[2,3-d]pyrimidin-7-yl)isoindolin-1-one] | 10 to 100 nM | 10 to 100 nM | 1000 to 100000 nM
– | COC(=O)NCC1NC(=O)c2ccc(-n3ccc4cncnc43)cc21 (stereo not drawn) [Cpd. No. 20, methyl ((3-oxo-6-(7H-pyrrolo[2,3-d]pyrimidin-7-yl)isoindolin-1-yl)methyl)carbamate] | 100 to 10000 nM | – | –
– | O=C1NCc2cc(-n3ccc4cncnc43)cc(F)c21 [Cpd. No. 23, 7-fluoro-5-(7H-pyrrolo [2,3-d]pyrimidin-7-yl) isoindolin-1-one] | 100 to 10000 nM | – | –
– | O=C1NCc2cc(-n3cnc4cncnc43)ccc21 [Cpd. No. 16, 5-(9H-purin-9-yl) isoindolin-1-one] | 100 to 10000 nM | – | –
– | O=C1NCc2cc(-n3ncc4cnccc43)ccc21 [Cpd. No. 4, 5-(1H-pyrazolo[4,3-c]pyridin-1-yl)isoindolin-1-one] | 100 to 10000 nM | – | –
– | Cc1ncnc2c1ccn2-c1ccc2c(c1)CNC2=O [Cpd. No. 7, 5-(4-methyl-7H-pyrrolo[2,3-d]pyrimidin-7-yl) isoindolin-1-one] | 100 to 10000 nM | – | –
– | Nc1ncnc2c1ccn2-c1ccc2c(c1)CNC2=O [Cpd. No. 12, 5-(4-amino-7H-pyrrolo [2,3-d]pyrimidin-7-yl) isoindolin-1-one] | 100 to 10000 nM | – | –
– | O=C1NCc2nc(-n3ccc4cnccc43)ncc21 [Cpd. No. 14, 2-(1H-pyrrolo[3,2-c]pyridin-1-yl)-6,7-dihydro-5H-pyrrolo[3,4-d]pyrimidin-5-one] | 100 to 10000 nM | – | –
< 10 nM | Nc1ncnc2c1ccn2-c1cc(Cl)c2c(c1)C1(CCCCC1)NC2=O [Cpd. No. 28, 6′-(4-amino-7H-pyrrolo[2,3-d]pyrimidin-7-yl)-4′-chlorospiro[cyclohexane-1,1′-isoindolin]-3′-one] | – | – | < 50 nM
– | Cc1cc(-n2ccc3cncnc32)cc2c1C(=O)NC2C (stereo not drawn) [Cpd. No. 22, 3,7-dimethyl-5-(7H-pyrrolo[2,3-d]pyrimidin-7-yl)isoindolin-1-one] | 10 to 100 nM | 10 to 100 nM | 1000 to 100000 nM
– | O=C1NCc2cc(-n3cc(-c4cscn4)c4cncnc43)ccc21 [Cpd. No. 25, 5-(5-(thiazol-4-yl)-7H-pyrrolo[2,3-d]pyrimidin-7-yl)isoindolin-1-one] | 100 to 10000 nM | – | –
– | Cc1cc(-n2ccc3c(N)ncnc32)cc2c1C(=O)NC21CCN(CC(F)F)CC1 [Cpd. No. 33, 6-(4-amino-7H-pyrrolo[2,3-d]pyrimidin-7-yl)-1′-(2,2-difluoroethyl)-4-methylspiro[isoindoline-1,4′-piperidin]-3-one] | – | – | 50 to 1000 nM
– | O=C1NC2(CCCCC2)c2cc(-n3ccc4cncnc43)cc(Cl)c21 [Cpd. No. 29, 4′-chloro-6′-(7H-pyrrolo[2,3-d]pyrimidin-7-yl)spiro[cyclohexane-1,1′-isoindolin]-3′-one] | 10 to 100 nM | – | < 50 nM
– | CC1NC(=O)c2ccc(N3CCc4cncnc43)cc21 (stereo not drawn) [Cpd. No. 3, 3-methyl-5-(5H-pyrrolo[2,3-d]pyrimidin-7(6H)-yl)isoindolin-1-one] | 100 to 10000 nM | – | 1000 to 100000 nM
– | c1cc2cc(-n3ccc4cncnc43)ccc2cn1 [Cpd. No. 6, 6-(7H-pyrrolo[2,3-d]pyrimidin-7-yl)isoquinoline] | 100 to 10000 nM | – | 1000 to 100000 nM

IC50 (recombinant MNK2; [1]) | Structure (SMILES) | IC50 (recombinant MNK2) | IC50 (recombinant MNK1) | IC50 (Phosphorylated eIF4E)
– | O=C1NCc2cc(-n3ccc4cncnc43)ccc21 [Cpd. No. 1, 5-(7H-pyrrolo[2,3-d]pyrimidin-7-yl)isoindolin-1-one] | 100 to 10000 nM | 100 to 10000 nM | 1000 to 100000 nM
– | CC1NC(=O)c2ccc(-n3ccc4cncnc43)cc21 (stereo not drawn) [Cpd. No. 2, 3-methyl-5-(7H-pyrrolo[2,3-d]pyrimidin-7-yl)isoindolin-1-one] | 100 to 10000 nM | – | –
– | c1ncc2ccn(-c3ccc4c(c3)CSC4)c2n1 [Cpd. No. 13, 7-(1,3-dihydrobenzo[c]thiophen-5-yl)-7H-pyrrolo[2,3-d]pyrimidine] | 100 to 10000 nM | – | –
– | O=C1NCc2cc(-n3ccc4cnccc43)ncc21 [Cpd. No. 11, 6-(1H-pyrrolo[3,2-c]pyridin-1-yl)-1H-pyrrolo[3,4-c]pyridin-3(2H)-one] | 100 to 10000 nM | – | 1000 to 100000 nM
< 10 nM | O=C1NC2(CCCC2)c2cc(-n3ccc4cncnc43)cc(Cl)c21 [Cpd. No. 27, 4′-chloro-6′-(7H-pyrrolo[2,3-d]pyrimidin-7-yl)spiro[cyclopentane-1,1′-isoindolin]-3′-one] | – | – | 50 to 1000 nM
– | NCC1NC(=O)c2ccc(-n3ccc4cncnc43)cc21 (stereo not drawn) [Cpd. No. 21, 3-(aminomethyl)-5-(7H-pyrrolo[2,3-d]pyrimidin-7-yl)isoindolin-1-one hydrochloride] | 100 to 10000 nM | – | –
– | CC1NC(=O)c2c(Cl)cc(-n3ccc4cncnc43)cc21 (stereo not drawn) [Cpd. No. 17, 7-chloro-3-methyl-5-(7H-pyrrolo [2,3-d]pyrimidin-7-yl) isoindolin-1-one] | 10 to 100 nM | < 10 nM | 50 to 1000 nM
– | O=C1NCc2cc(-n3cc(-c4ccncc4)c4cncnc43)ccc21 [Cpd. No. 19, 5-(5-(pyridin-4-yl)-7H-pyrrolo[2,3-d]pyrimidin-7-yl)isoindolin-1-one] | 100 to 10000 nM | – | –
– | O=C1NCc2cc(-n3cc(-c4ccccc4Cl)c4cncnc43)ccc21 [Cpd. No. 24, 5-(5-(2-chlorophenyl)-7H-pyrrolo [2,3-d]pyrimidin-7-yl) isoindolin-1-one] | 100 to 10000 nM | – | –
– | Cc1cc(-n2ccc3c(N)ncnc32)nc2c1C(=O)NC21CCCCC1 [Cpd. No. 34, 2′-(4-amino-7H-pyrrolo[2,3-d]pyrimidin-7-yl)-4′-methylspiro[cyclohexane-1,7′-pyrrolo[3,4-b]pyridin]-5′(6′H)-one] | – | – | < 50 nM
– | O=C1NCc2nc(-n3ccc4cncnc43)ccc21 [Cpd. No. 32, 2-(7H-pyrrolo[2,3-d]pyrimidin-7-yl)-6,7-dihydro-5H-pyrrolo[3,4-b]pyridin-5-one] | – | – | 50 to 1000 nM
< 10 nM | Nc1ncnc2c1ccn2-c1cc(Cl)c2c(c1)C1(CCCC1)NC2=O [Cpd. No. 30, 6′-(4-amino-7H-pyrrolo[2,3-d]pyrimidin-7-yl)-4′-chlorospiro[cyclopentane-1,1′-isoindolin]-3′-one] | – | – | < 50 nM
– | N#Cc1ccccc1-c1cn(-c2ccc3c(c2)CNC3=O)c2ncncc12 [Cpd. No. 26, 2-(7-(1-oxoisoindolin-5-yl)-7H-pyrrolo[2,3-d]pyrimidin-5-yl)benzonitrile] | 100 to 10000 nM | – | –
– | Cc1cc(-n2ccc3c(N)ncnc32)cc2c1C(=O)NC21CCN(C)CC1 [Cpd. No. 31, 6-(4-amino-7H-pyrrolo [2,3-d]pyrimidin-7-yl)-1′,4-dimethylspiro[isoindoline-1,4′-piperidin]-3-one] | – | – | 50 to 1000 nM
< 10 nM | CC1(C)NC(=O)c2c(Cl)cc(-n3ccc4cncnc43)cc21 [Cpd. No. 18, 7-chloro-3,3-dimethyl-5-(7H-pyrrolo [2,3-d]pyrimidin-7-yl) isoindolin-1-one] | – | < 10 nM | 50 to 1000 nM
